What is called EC50 is the concentration at which the effect is half-maximal.

Like-named read-outs stand apart in the source and are kept apart here.

This experiment concerns HCV 1b genotype. As to the kind of experiment: HCV replicon assay (HCV-neo replicon cells, wild-type). Format: cell-based, Hepatitis C virus. Particulars: HCV 1b genotype replicon. The procedure, abridged:
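Inhibition was tested in replicon-bearing cells, both wild-type HCV-neo and lines with NS5A resistance substitutions, using the O'Boyle et al. 2005 replicon method or luciferase-reporter formats.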
On the technique in general: In antiviral work, replicon cells carry a viral genome segment that copies itself.

[1] abbreviates: Hepatitis C virus, class symbol, read-out: EC50 Range against HCV 1b.
[2] abbreviates: Hepatitis C virus, read-out: EC50 1b.
Setting [3] is: class symbol, read-out: EC50 Range against HCV 1b.

On to `O=C(Nc1ccc(-c2n[nH]nc2-c2ccc(NC(=O)[C@@H]3C[C@@H](O)CN3C(=O)Cc3ccccc3)cc2)cc1)[C@@H]1C[C@@H](O)CN1C(=O)Cc1ccccc1` [OL-21, (2S,4R,2′S,4′R)-N,N′-(1H-1,2,3-triazole-4,5-diyldi-4,1-phenylene)bis(4-hydroxy-1-(phenylacetyl)-2-pyrrolidinecarboxamide)], for which the 50% effective concentration (EC50) under setting [1] fell in the range of 100 to 999 nM. Same read-out and setting: the value for `CC(=O)N[C@@H](C(=O)N1CCCC1C(=O)Nc1ccc(-c2cc(-c3ccc(NC(=O)C4CCCN4C(=O)[C@H](NC(C)=O)c4ccccc4)cc3)[nH]n2)cc1)c1ccccc1` (stereo partly drawn) [OL-42, N,N′-(1H-pyrazole-3,5-diyldi-4,1-phenylene)bis(1-((2R)-2-acetamido-2-phenylacetyl)-2-pyrrolidinecarboxamide)] was less than 4.57 nM.

As for `Cc1nc(-c2ccc(NC(=O)[C@H](C)NC(=O)OCc3ccccc3)cc2)c(-c2ccc(NC(=O)[C@H](C)NC(=O)OCc3ccccc3)cc2)o1` [OL-4, [(2-methyl-4,5-oxazolediyl)bis[4,1-phenyleneimino[(1S)-1-methyl-2-oxo-2,1-ethanediyl]]]bis-carbamic acid, bis(phenylmethyl) ester], the concentration for a half-maximal effect (EC50) is 100 to 999 nM under setting [1] and 220 nM under setting [2]. `C[C@H](NC(=O)[C@@](C)(O)c1ccccc1)C(=O)Nc1ccc(-c2cc(-c3ccc(NC(=O)[C@H](C)NC(=O)[C@@](C)(O)c4ccccc4)cc3)[nH]n2)cc1` [OL-45, (2S,2′S)-N,N′-(1H-pyrazole-3,5-diylbis(4,1-phenyleneimino((2S)-1-oxo-1,2-propanediyl)))bis(2-hydroxy-2-phenylpropanamide)]: the 50% effective concentration (EC50) under setting [1] is less than 4.57 nM. On to `O=C(Nc1ccc(-c2ccc(-c3ccc(NC(=O)[C@@H]4CCCN4C(=O)[C@H](O)c4ccccc4)cc3)o2)cc1)[C@@H]1CCCN1C(=O)[C@H](O)c1ccccc1` [JG-57, (2S,2′S)-N,N′-(2,5-furandiyldi-4,1-phenylene)bis(1-((2R)-2-hydroxy-2-phenylacetyl)-2-pyrrolidinecarboxamide)], for which the EC50 under setting [3] is 100 to 999 nM. Consider `CC(=O)N1CCC[C@H]1C(=O)Nc1ccc(-c2cnc(-c3ccc(NC(=O)[C@@H]4C[C@@H](OC(C)(C)C)CN4C(=O)OCc4ccccc4)cc3)o2)cc1` [MS-2, benzyl (2S,4R)-2-((4-(5-(4-((((2S)-1-acetyl-2-pyrrolidinyl)carbonyl)amino)phenyl)-1,3-oxazol-2-yl)phenyl)carbamoyl)-4-tert-butoxy-1-pyrrolidinecarboxylate], for which the concentration for a half-maximal effect (EC50) under setting [1] is 100 to 999 nM. The same measure, in the same setting: the value for `O=C(Nc1ccc(-c2ccc(-c3ccc(NC(=O)[C@@H]4CCCN4C(=O)Cc4ccccc4)cc3)s2)cc1)[C@@H]1CCCN1C(=O)Cc1ccccc1` [OL-22, (2S,2′S)-N,N′-(2,5-thienediyldi-4,1-phenylene)bis(1-(phenylacetyl)-2-pyrrolidinecarboxamide)] was 4.57 to 99 nM.

For `CC(C)(C)OC[C@H](NC(=O)Cc1ccccc1)C(=O)Nc1ccc(-c2cnc(-c3ccc(NC(=O)[C@H](COC(C)(C)C)NC(=O)Cc4ccccc4)cc3)o2)cc1` [JG-16, (2S,2′S)-N,N′-(1,3-oxazole-2,5-diyldi-4,1-phenylene)bis(3-tert-butoxy-2-((phenylacetyl)amino)propanamide)], the EC50 under setting [1] lay in the range of 100 to 999 nM.

As to `O=C(Nc1ccc(-c2nnc(-c3ccc(NC(=O)[C@@H]4CCCN4C(=O)OCc4ccccc4)cc3)o2)cc1)[C@@H]1CCCN1C(=O)OCc1ccccc1` [MS-8, (2S,2′S)-2,2′-[1,3,4-oxadiazole-2,5-diylbis(4,1-phenyleneiminocarbonyl)]bis-1-pyrrolidinecarboxylic acid, bis(phenylmethyl) ester], the EC50 under setting [1] lay in the range of 4.57 to 99 nM and the EC50 under setting [2] came to 90 nM. With `CN(C)C(Cc1ccc(Br)cc1)C(=O)N1CCC[C@H]1C(=O)Nc1ccc(-c2cnc(-c3ccc(NC(=O)[C@@H]4CCCN4C(=O)C(Cc4ccc(Br)cc4)N(C)C)cc3)o2)cc1` (stereo partly drawn) [JR-8, (2S)-N,N′-(4,4′-(oxazole-2,5-diyl)bis(4,1-phenylene))bis(1-(3-(4-bromophenyl)-2-(dimethylamino)propanoyl)pyrrolidine-2-carboxamide)], the EC50 (class symbols, read-out: EC50 Range against HCV 1b) was 4.57 to 99 nM.

Consider `C[C@@](O)(C(=O)N1CCC[C@H]1C(=O)Nc1ccc(-c2cc(-c3ccc(NC(=O)[C@@H]4CCCN4C(=O)[C@@](C)(O)c4ccccc4)cc3)[nH]n2)cc1)c1ccccc1` [JG-39, (2S,2′S)-N,N′-(1H-pyrazole-3,5-diyldi-4,1-phenylene)bis(1-((2S)-2-hydroxy-2-phenylpropanoyl)-2-pyrrolidinecarboxamide)], for which the EC50 by setting is: under setting [1], less than 4.57 nM; under setting [2], less than 5 nM. The matching figures for `C[C@](O)(C(=O)N1CCC[C@H]1C(=O)Nc1ccc(-c2nnc(-c3ccc(NC(=O)[C@@H]4CCCN4C(=O)[C@](C)(O)c4ccccc4)cc3)o2)cc1)c1ccccc1` [RK-28, (2S,2′S)-N,N′-(1,3,4-oxadiazole-2,5-diyldi-4,1-phenylene)bis(1-((2R)-2-hydroxy-2-phenylpropanoyl)-2-pyrrolidinecarboxamide)]: less than 4.57 nM and 3 nM. In the case of `C[C@@](O)(C(=O)N1CC[C@@H](NC(=O)Nc2ccc(-c3cnc(-c4ccc(NC(=O)N[C@@H]5CCN(C(=O)[C@@](C)(O)c6ccccc6)C5)cc4)o3)cc2)C1)c1ccccc1` [FY-7, N′,N′″-(1,3-oxazole-2,5-diyldi-4,1-phenylene)bis(1-((3R)-1-(2-hydroxy-2-phenylpropanoyl)-3-pyrrolidinyl)urea)], under setting [1], the concentration for a half-maximal effect (EC50) lay in the range of 100 to 999 nM. Regarding `O=C(Nc1ccc(-c2n[nH]nc2-c2ccc(NC(=O)[C@@H]3CCCN3C(=O)OCc3ccccc3)cc2)cc1)[C@@H]1CCCN1C(=O)OCc1ccccc1` [OL-19, (2S,2′S)-2,2′-[1H-1,2,3-triazole-4,5-diylbis(4,1-phenyleneiminocarbonyl)]bis-1-pyrrolidinecarboxylic acid, bis(phenylmethyl) ester], the EC50 under setting [1] fell in the range of 4.57 to 99 nM. Regarding `O=C(Nc1ccc(-c2cnc(-c3ccc(NC(=O)[C@@H]4CCCN4C(=O)Cc4ccccc4)cc3)o2)cc1)[C@@H]1CCCN1C(=O)Cc1ccccc1` [JG-3, (2S,2′S)-N,N′-(1,3-oxazole-2,5-diyldi-4,1-phenylene)bis(1-(phenylacetyl)-2-pyrrolidinecarboxamide)], the half-maximal effective concentration (EC50) under setting [1] is less than 4.57 nM. The same measure, in the same setting: the value for `CCC(=O)N1CCC[C@H]1C(=O)Nc1ccc(-c2cnc(-c3ccc(NC(=O)[C@@H]4CCCN4C(=O)CC)cc3)o2)cc1` [JG-8, (2S,2′S)-N,N′-(1,3-oxazole-2,5-diyldi-4,1-phenylene)bis(1-propionyl-2-pyrrolidinecarboxamide)] was 100 to 999 nM; that for `CN(C)C(C(=O)N1CCC[C@H]1C(=O)Nc1ccc(-c2cnc(-c3ccc(NC(=O)[C@@H]4CCCN4C(=O)C(c4ccccc4F)N(C)C)cc3)o2)cc1)c1ccccc1F` (stereo partly drawn) [Example D-4, (2S,2′S)-N,N′-(2,5-oxazolediyldi-4,1-phenylene)bis[1-[(dimethylamino)(2-fluorophenyl)acetyl]-2-pyrrolidinecarboxamide]] was less than 4.57 nM. With `CC(O)(C(=O)N1C(C(=O)Nc2ccc(-c3cnc(-c4ccc(NC(=O)C5CC6CC6N5C(=O)C(C)(O)c5ccccc5)cc4)o3)cc2)CC2CC21)c1ccccc1` [CB-10, (1S,3S,5S,1′S,3′S,5′S)-N,N′-(1,3-oxazole-2,5-diyldi-4,1-phenylene)bis(2-((2R)-2-hydroxy-2-phenylpropanoyl)-2-azabicyclo[3.1.0]hexane-3-carboxamide)], the EC50 under setting [3] was less than 4.57 nM. With `CC(C)(C)O[C@@H]1C[C@@H](C(=O)Nc2ccc(-c3cnc(-c4ccc(NC(=O)[C@@H]5C[C@@H](OC(C)(C)C)CN5C(=O)Cc5cccnc5)cc4)o3)cc2)N(C(=O)Cc2cccnc2)C1` [XY-62, (2S,4R,2′S,4′R)-N,N′-(1,3-oxazole-2,5-diyldi-4,1-phenylene)bis(4-tert-butoxy-1-(3-pyridinylacetyl)-2-pyrrolidinecarboxamide)], the 50% effective concentration (EC50) (Hepatitis C virus, class symbols, read-out: EC50 Range against HCV 1b) lay within 4.57 to 99 nM. As for `CN(C)[C@@H](C(=O)N1CC[C@@H](NC(=O)Nc2ccc(-c3cnc(-c4ccc(NC(=O)N[C@@H]5CCN(C(=O)[C@@H](c6ccccc6)N(C)C)C5)cc4)o3)cc2)C1)c1ccccc1` [FY-8, N′,N′″-(1,3-oxazole-2,5-diyldi-4,1-phenylene)bis(1-((3R)-1-((2R)-2-(dimethylamino)-2-phenylacetyl)-3-pyrrolidinyl)urea)], the EC50 under setting [1] was in the range of 100 to 999 nM. Consider `Cn1ccnc1C(O)C(=O)N1CCC[C@H]1C(=O)Nc1ccc(-c2cnc(-c3ccc(NC(=O)[C@@H]4CCCN4C(=O)C(O)c4nccn4C)cc3)o2)cc1` (stereo partly drawn) [Example D-11, (2S,2′S)-N,N′-(4,4′-(oxazole-2,5-diyl)bis(4,1-phenylene))bis(1-(2-hydroxy-2-(1-methyl-1H-imidazol-2-yl)acetyl)pyrrolidine-2-carboxamide)], for which the half-maximal effective concentration (EC50) is 1000 to 10000 nM under setting [3] and 2090 nM (read-out: EC50 1b). `O=C(Nc1ccc(-c2cnc(-c3ccc(NC(=O)[C@@H]4CCCN4C(=O)c4onc5ccccc45)cc3)o2)cc1)[C@@H]1CCCN1C(=O)c1onc2ccccc12` [JG-30, (2S,2′S)-N,N′-(1,3-oxazole-2,5-diyldi-4,1-phenylene)bis(1-(2,1-benzisoxazol-3-ylcarbonyl)-2-pyrrolidinecarboxamide)]: the EC50 under setting [1] was in the range of 4.57 to 99 nM. The same measure, in the same setting: next, `O=C(Nc1ccc(-c2nnc(-c3ccc(NC(=O)[C@@H]4CCC(=O)N4C(=O)OCc4ccccc4)cc3)o2)cc1)[C@@H]1CCC(=O)N1C(=O)OCc1ccccc1` [RK-2, dibenzyl (2S,2′S)-2,2′-(1,3,4-oxadiazole-2,5-diylbis(4,1-phenylenecarbamoyl))bis(5-oxo-1-pyrrolidinecarboxylate)]: 1000 to 10000 nM; `C[C@H](NC(=O)c1ccco1)C(=O)Nc1ccc(-c2nnc(-c3ccc(NC(=O)[C@H](C)NC(=O)c4ccco4)cc3)o2)cc1` [RK-21, N,N′-(1,3,4-oxadiazole-2,5-diylbis(4,1-phenyleneimino((2S)-1-oxo-1,2-propanediyl)))di(2-furamide)]: 1000 to 10000 nM.

For the origin of these results see patent US8735398B2 (Bristol-Myers Squibb Company, priority 2009, dated 2014).
